Active and inactive are the calls of the source. The calls are words filed in the database; no cut-off is given here.
Legend:
[1] = Stability of compound in rat serum at 25 degreeC measured every 2 hrs for 24 hrs by HPLC analysis; format: ADME, cell-free
Mus musculus [2] = assay: Anti-inflammatory activity against LPS-induced […] mouse model of […] assessed as alleviation of inflammatory infiltration in lung at 20 mg/kg, po pre-treated with compound for 30 mins followed by LPS stimulation and measured after 6 hrs by H&E staining based histopathological analysis; format: functional, organism-based; details: time 6.5 hrs
[3] = Drug distribution in Sprague-Dawley rat spleen at 10 mg/kg, po measured after 3 hrs by LC-MS/MS analysis; format: ADME, organism-based; details: read-out: Drug uptake
J774.A1 [4] = assay: Inhibition of NF-kappaB pathway in LPS-induced mouse J774.A1 cells assessed as decrease in p65 nuclear translocation preincubated with compound for 2 hrs followed by LPS-stimulation and measured after 15 mins by Western blot analysis; format: cell-based; details: dose 10-40 µM, time 135.0 min
[5] = Drug distribution in Sprague-Dawley rat heart at 1 mg/kg, iv measured after 4 hrs by LC-MS/MS analysis; format: ADME, organism-based; details: read-out: Drug uptake
J774.A1 [6] = assay: Inhibition of NF-kappaB pathway in LPS-induced mouse J774.A1 cells assessed as reduction in p65 nuclear reactivity preincubated with compound for 2 hrs followed by LPS-stimulation and measured after 15 mins by DAPI staining based immunofluorescence analysis; format: cell-based; details: time 135.0 min
[7] = Drug distribution in Sprague-Dawley rat lung at 10 mg/kg, po measured after 3 hrs by LC-MS/MS analysis; format: ADME, organism-based; details: read-out: Drug uptake
[8] = Drug distribution in Sprague-Dawley rat heart at 10 mg/kg, po measured after 8 hrs by LC-MS/MS analysis; format: ADME, organism-based; details: read-out: Drug uptake
Mus musculus [9] = assay: Anti-inflammatory activity against LPS-induced […] mouse model of […] assessed as alleviation of tissue destruction in lung at 20 mg/kg, po pre-treated with compound for 30 mins followed by LPS stimulation and measured after 6 hrs by H&E staining based histopathological analysis; format: functional, organism-based; details: time 6.5 hrs
THP-1 [10] = assay: Anti-inflammatory activity in human THP-1 cells assessed as inhibition of LPS-stimulated IL-6 release at 1.25 to 20 uM by ELISA analysis; format: functional, cell-based; details: dose 1.25-20 µM
Mus musculus [11] = assay: Anti-inflammatory activity against LPS-induced […] mouse model of […] assessed as alleviation of interstitial edema in lung at 20 mg/kg, po pre-treated with compound for 30 mins followed by LPS stimulation and measured after 6 hrs by H&E staining based histopathological analysis; format: functional, organism-based; details: time 6.5 hrs
[12] = Drug distribution in Sprague-Dawley rat liver at 1 mg/kg, iv measured after 2 hrs by LC-MS/MS analysis; format: ADME, organism-based; details: read-out: Drug uptake
Mus musculus [13] = assay: Anti-inflammatory activity against LPS-induced […] mouse model of […] assessed as decrease in IL-6 level in serum at 20 mg/kg, po pre-treated with compound for 30 mins followed by LPS stimulation and measured after 6 hrs; format: functional, organism-based; details: time 6.5 hrs
[14] = Cmax in Sprague-Dawley rat at 10 mg/kg, po measured at 15 to 1440 min by LC-MS/MS analysis; format: ADME, organism-based; set-up: time lower 15 min, dose 10 mg/kg, time upper 1440 min, route po; details: in vivo
[15] = Drug distribution in Sprague-Dawley rat kidney at 1 mg/kg, iv measured after 2 hrs by LC-MS/MS analysis; format: ADME, organism-based; details: read-out: Drug uptake
[16] = Drug distribution in Sprague-Dawley rat kidney at 1 mg/kg, iv measured after 0.5 hrs by LC-MS/MS analysis; format: ADME, organism-based; details: read-out: Drug uptake
[17] = Drug distribution in Sprague-Dawley rat heart at 10 mg/kg, po measured after 1 hrs by LC-MS/MS analysis; format: ADME, organism-based; details: read-out: Drug uptake
[18] = AUC (0 to t) in Sprague-Dawley rat at 1 mg/kg, iv measured at 5 to 1440 min by LC-MS/MS analysis; format: ADME, organism-based; set-up: time upper 1440 min, time lower 5 min, dose 1 mg/kg, route iv; details: in vivo
[19] = biological target: T1, Myeloid differentiation primary response protein MyD88 (Homo sapiens, UniProt Q99836); assay: Binding affinity to human MyD88 TIR domain by SPR analysis; details: dose 1.19-5.94 10^-5M
[20] = Stability of compound in rat serum at 32 degreeC measured every 2 hrs for 24 hrs by HPLC analysis; format: ADME, cell-free
J774.A1 [21] = assay: Anti-inflammatory activity in mouse J774.A1 cells assessed as inhibition of LPS-induced TNF-alpha production pre-stimulated with LPS for 24 hrs followed by compound addition and measured after 0.5 hrs by ELISA analysis; format: functional, cell-based
[22] = biological target: T1, Myeloid differentiation primary response protein MyD88; assay: Binding affinity to human MyD88 TIR domain assessed as equilibrium dissociation constant by SPR analysis
Mus musculus [23] = assay: Anti-inflammatory activity against LPS-induced […] mouse model of […] assessed as decrease in TNF-alpha mRNA level in lung at 20 mg/kg, po pre-treated with compound for 30 mins followed by LPS stimulation and measured after 6 hrs by qRT-PCR analysis; format: functional, organism-based; details: time 6.5 hrs
THP-1 [24] = assay: Anti-inflammatory activity in human THP-1 cells assessed as inhibition of LPS-stimulated TNF-alpha release at 1.25 to 20 uM by ELISA analysis; format: functional, cell-based; details: dose 1.25-20 µM
[25] = Drug distribution in Sprague-Dawley rat kidney at 1 mg/kg, iv measured after 4 hrs by LC-MS/MS analysis; format: ADME, organism-based; details: read-out: Drug uptake
[26] = biological target: TLR4-MyD88 (Mus musculus) (UniProt Q9QUK6+P22366); assay: Inhibition of MyD88/TLR4 interaction in LPS-stimulated mouse J774.A1 cells at 40 to 80 uM preincubated with compound for 2 hrs followed by LPS stimulation by co-immunoprecipitation analysis; format: cell-based; details: dose 40-80 µM
[27] = Tmax in Sprague-Dawley rat at 1 mg/kg, iv measured at 5 to 1440 min by LC-MS/MS analysis; format: ADME, organism-based; details: in vivo, time 5-1440 min
Mus musculus [28] = assay: Anti-inflammatory activity against LPS-induced […] mouse model of […] assessed as alleviation of lung edema by measuring decrease in total lung protein level at 20 mg/kg, po pre-treated with compound for 30 mins followed by LPS stimulation and measured after 6 hrs; format: functional, organism-based; details: time 6.5 hrs
[29] = Drug distribution in Sprague-Dawley rat heart at 1 mg/kg, iv measured after 2 hrs by LC-MS/MS analysis; format: ADME, organism-based; details: read-out: Drug uptake
[30] = Drug distribution in Sprague-Dawley rat spleen at 1 mg/kg, iv measured after 2 hrs by LC-MS/MS analysis; format: ADME, organism-based; details: read-out: Drug uptake
[31] = Drug distribution in Sprague-Dawley rat lung at 1 mg/kg, iv measured after 4 hrs by LC-MS/MS analysis; format: ADME, organism-based; details: read-out: Drug uptake
Mus musculus [32] = assay: Anti-inflammatory activity against LPS-induced […] mouse model of […] assessed as decrease in TNF-alpha level in BALF at 20 mg/kg, po pre-treated with compound for 30 mins followed by LPS stimulation and measured after 6 hrs; format: functional, organism-based; details: time 6.5 hrs
[33] = Drug distribution in Sprague-Dawley rat liver at 1 mg/kg, iv measured after 0.5 hrs by LC-MS/MS analysis; format: ADME, organism-based; details: read-out: Drug uptake
[34] = Drug distribution in Sprague-Dawley rat brain at 10 mg/kg, po measured after 8 hrs by LC-MS/MS analysis; format: ADME, organism-based; details: read-out: Drug uptake
[35] = Drug distribution in Sprague-Dawley rat liver at 10 mg/kg, po measured after 8 hrs by LC-MS/MS analysis; format: ADME, organism-based; details: read-out: Drug uptake
[36] = Half-life in Sprague-Dawley rat at 10 mg/kg, po measured at 15 to 1440 min by LC-MS/MS analysis; format: ADME, organism-based; details: in vivo, time 15-1440 min

T1 sequence (Q99836 whole entry, the tested form may be a part): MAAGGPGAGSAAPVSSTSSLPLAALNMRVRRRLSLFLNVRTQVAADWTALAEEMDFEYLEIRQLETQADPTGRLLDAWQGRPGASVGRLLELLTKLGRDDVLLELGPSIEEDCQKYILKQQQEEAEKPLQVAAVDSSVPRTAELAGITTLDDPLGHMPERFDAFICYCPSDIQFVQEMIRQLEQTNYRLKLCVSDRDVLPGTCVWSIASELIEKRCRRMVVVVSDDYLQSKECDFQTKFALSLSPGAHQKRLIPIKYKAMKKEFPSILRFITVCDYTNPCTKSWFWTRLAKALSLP
Chain of TLR4-MyD88 (Mus musculus) (P22366 whole entry, looked up): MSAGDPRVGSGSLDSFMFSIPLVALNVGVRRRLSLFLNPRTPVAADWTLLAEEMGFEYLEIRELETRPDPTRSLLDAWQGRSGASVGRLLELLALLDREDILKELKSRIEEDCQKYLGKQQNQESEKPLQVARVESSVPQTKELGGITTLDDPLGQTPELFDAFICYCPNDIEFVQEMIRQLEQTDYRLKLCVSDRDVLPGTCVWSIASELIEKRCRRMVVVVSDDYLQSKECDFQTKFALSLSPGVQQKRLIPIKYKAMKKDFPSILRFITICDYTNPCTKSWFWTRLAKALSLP
Chain of TLR4-MyD88 (Mus musculus) (Q9QUK6 whole entry, looked up): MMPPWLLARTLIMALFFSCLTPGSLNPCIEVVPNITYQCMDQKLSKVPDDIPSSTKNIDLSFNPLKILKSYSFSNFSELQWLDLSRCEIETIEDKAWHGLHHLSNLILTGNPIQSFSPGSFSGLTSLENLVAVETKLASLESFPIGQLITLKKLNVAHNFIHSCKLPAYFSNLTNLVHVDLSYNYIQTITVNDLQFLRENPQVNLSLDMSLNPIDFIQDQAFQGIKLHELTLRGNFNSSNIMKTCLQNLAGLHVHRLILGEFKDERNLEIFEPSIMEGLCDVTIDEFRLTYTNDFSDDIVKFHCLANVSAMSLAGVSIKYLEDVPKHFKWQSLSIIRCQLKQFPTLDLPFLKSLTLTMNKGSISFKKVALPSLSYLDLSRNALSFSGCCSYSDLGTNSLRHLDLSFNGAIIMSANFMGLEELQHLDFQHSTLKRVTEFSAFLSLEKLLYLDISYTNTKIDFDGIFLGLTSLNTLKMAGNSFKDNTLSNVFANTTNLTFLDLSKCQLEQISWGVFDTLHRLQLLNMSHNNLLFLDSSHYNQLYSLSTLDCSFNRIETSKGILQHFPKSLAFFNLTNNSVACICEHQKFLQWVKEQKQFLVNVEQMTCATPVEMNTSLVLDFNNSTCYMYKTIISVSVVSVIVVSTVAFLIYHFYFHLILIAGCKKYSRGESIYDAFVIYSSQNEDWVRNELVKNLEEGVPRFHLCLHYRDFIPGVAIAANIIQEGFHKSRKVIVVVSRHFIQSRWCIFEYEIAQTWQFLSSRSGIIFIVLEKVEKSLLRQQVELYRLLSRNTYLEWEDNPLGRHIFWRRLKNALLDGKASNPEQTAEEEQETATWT

COc1ccc(NS(=O)(=O)c2ccc(N3CCN(Cc4cccc([N+](=O)[O-])c4)CC3)c([N+](=O)[O-])c2)cn1
Stability [1]: Stable | Activity (Mus musculus [2]): Active | concentration at 3 h [3]: 32 ng/g | inhibition (J774.A1 [4]): Dose-Dependent Effect | concentration at 4 h [5]: 275 ng/g | inhibition (J774.A1 [6]): Active | concentration at 3 h [7]: 37.1 ng/g | concentration at 8 h [8]: 452 ng/g | Activity (Mus musculus [9]): Active | inhibition (THP-1 [10]): Active | Activity (Mus musculus [11]): Active | concentration at 2 h [12]: 192 ng/g | Activity (Mus musculus [13]): Active | Cmax [14]: 2.21 µg/mL | concentration at 2 h [15]: 143 ng/g | concentration at 0.5 h [16]: 52.5 ng/g | concentration at 1 h [17]: 10.6 ng/g | AUCt [18]: 4.795 µg·h/mL | Activity [19]: Dose-Dependent Effect | Stability [20]: Stable | IC50 (J774.A1 [21]): 8.17 µM | Kd [22]: 53 µM | Activity (Mus musculus [23]): Active | inhibition (THP-1 [24]): Active | concentration at 4 h [25]: 250 ng/g | inhibition [26]: Active | Tmax [27]: 6 min | Activity (Mus musculus [28]): Active | concentration at 2 h [29]: 118 ng/g | concentration at 2 h [30]: 76.8 ng/g | concentration at 4 h [31]: 502 ng/g | Activity (Mus musculus [32]): Active | concentration at 0.5 h [33]: 166 ng/g | concentration at 8 h [34]: 39.9 ng/g | concentration at 8 h [35]: 249 ng/g | half-life [36]: 7 h
